Source: patent US20210403485A1, “PYRAZOLOPYRIMIDINE DERIVATIVE AS SELECTIVE TRK INHIBITOR” (SHANDONG LUYE PHARMACEUTICAL CO., LTD., priority 2018, published 2021)

Assays:
Experiment in all cases: Kinase inhibitory activity (33P-ATP, filtration-binding method, Reaction Biology Corp.)
Assay type in all cases: biochemical
TrkA-G595R = molecular target: T1, TrkA-G595R (Homo sapiens, UniProt P04629, G595R)
T1 construct: purchased Reaction Biology Corp
In short: (§1)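 Radiometric kinase assay: enzyme-compound mixture preincubated 20 minutes at room temperature, then reaction started with ^33P-ATP and run 120 minutes at room temperature. Filtration-binding readout. Activity expressed relative to DMSO control; IC50 from fitted dose-response curves.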

Ros1 = molecular target: T2, Ros1 (Homo sapiens, UniProt P08922)
T2 construct: purchased Reaction Biology Corp
In short: as §1

TrkC = molecular target: T3, TrkC (Homo sapiens, UniProt Q16288)
T3 construct: purchased Reaction Biology Corp
In short: as §1

TrkA-G667C = molecular target: T4, TrkA-G667C (Homo sapiens, UniProt P04629, G667C)
T4 construct: purchased Reaction Biology Corp
In short: as §1

T2 sequence (P08922 28-2347): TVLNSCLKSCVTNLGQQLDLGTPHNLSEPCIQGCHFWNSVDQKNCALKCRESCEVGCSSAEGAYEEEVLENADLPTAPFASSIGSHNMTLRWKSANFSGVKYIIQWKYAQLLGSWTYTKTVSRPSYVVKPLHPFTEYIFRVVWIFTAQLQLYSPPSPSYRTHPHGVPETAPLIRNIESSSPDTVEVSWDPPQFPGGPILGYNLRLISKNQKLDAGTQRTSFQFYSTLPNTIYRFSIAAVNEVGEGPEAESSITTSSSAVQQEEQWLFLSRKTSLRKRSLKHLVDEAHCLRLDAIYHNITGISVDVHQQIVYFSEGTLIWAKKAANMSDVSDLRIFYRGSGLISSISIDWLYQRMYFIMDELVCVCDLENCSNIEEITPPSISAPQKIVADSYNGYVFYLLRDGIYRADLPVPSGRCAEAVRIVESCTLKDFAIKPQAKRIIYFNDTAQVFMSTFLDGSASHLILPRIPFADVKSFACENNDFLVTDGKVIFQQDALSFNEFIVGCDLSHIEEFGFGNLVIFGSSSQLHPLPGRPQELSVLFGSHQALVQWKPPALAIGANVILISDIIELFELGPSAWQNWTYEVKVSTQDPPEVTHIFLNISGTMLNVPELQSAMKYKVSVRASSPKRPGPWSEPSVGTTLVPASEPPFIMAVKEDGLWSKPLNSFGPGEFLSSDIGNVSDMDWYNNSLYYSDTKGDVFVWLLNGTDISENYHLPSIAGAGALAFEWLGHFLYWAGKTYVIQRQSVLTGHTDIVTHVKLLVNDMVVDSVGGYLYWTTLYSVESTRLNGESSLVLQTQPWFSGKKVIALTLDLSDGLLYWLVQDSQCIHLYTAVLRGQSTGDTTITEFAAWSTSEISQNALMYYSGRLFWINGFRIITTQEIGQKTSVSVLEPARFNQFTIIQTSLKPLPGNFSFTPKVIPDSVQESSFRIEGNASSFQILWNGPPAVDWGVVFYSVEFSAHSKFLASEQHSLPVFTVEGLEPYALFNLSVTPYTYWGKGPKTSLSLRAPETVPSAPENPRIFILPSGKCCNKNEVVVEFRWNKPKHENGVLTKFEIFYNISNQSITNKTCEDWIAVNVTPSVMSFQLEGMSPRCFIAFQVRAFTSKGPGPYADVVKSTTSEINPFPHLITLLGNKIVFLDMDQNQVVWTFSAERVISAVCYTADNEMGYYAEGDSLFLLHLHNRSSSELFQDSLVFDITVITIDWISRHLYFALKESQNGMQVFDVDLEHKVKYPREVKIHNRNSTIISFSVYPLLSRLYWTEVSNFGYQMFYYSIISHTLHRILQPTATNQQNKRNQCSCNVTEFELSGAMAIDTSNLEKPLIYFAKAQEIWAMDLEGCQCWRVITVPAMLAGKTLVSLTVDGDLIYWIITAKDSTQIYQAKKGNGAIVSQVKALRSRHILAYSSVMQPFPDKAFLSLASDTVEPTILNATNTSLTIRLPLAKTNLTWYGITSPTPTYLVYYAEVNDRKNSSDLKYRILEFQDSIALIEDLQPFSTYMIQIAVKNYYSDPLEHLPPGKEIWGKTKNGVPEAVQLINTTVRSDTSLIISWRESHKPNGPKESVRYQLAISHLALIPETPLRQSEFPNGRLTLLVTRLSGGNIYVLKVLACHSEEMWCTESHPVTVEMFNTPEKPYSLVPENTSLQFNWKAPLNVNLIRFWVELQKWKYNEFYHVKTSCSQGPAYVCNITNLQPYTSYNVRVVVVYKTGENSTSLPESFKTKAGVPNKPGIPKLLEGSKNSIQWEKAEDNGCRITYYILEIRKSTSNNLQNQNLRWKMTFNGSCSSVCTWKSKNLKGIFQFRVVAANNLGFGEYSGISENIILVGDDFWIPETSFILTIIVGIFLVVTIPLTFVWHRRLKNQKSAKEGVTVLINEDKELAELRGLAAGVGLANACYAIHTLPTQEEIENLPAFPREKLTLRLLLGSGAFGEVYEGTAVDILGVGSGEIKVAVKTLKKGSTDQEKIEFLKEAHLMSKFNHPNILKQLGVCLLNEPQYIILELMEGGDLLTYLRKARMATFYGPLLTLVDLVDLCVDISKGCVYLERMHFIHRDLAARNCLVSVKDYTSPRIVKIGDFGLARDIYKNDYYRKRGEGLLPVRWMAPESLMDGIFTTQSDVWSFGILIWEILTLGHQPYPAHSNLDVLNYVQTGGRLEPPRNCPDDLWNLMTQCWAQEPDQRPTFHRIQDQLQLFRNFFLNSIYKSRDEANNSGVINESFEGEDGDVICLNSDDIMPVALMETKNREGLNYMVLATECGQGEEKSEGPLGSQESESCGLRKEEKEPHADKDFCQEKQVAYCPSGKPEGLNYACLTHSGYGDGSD
T3 sequence (Q16288 32-839): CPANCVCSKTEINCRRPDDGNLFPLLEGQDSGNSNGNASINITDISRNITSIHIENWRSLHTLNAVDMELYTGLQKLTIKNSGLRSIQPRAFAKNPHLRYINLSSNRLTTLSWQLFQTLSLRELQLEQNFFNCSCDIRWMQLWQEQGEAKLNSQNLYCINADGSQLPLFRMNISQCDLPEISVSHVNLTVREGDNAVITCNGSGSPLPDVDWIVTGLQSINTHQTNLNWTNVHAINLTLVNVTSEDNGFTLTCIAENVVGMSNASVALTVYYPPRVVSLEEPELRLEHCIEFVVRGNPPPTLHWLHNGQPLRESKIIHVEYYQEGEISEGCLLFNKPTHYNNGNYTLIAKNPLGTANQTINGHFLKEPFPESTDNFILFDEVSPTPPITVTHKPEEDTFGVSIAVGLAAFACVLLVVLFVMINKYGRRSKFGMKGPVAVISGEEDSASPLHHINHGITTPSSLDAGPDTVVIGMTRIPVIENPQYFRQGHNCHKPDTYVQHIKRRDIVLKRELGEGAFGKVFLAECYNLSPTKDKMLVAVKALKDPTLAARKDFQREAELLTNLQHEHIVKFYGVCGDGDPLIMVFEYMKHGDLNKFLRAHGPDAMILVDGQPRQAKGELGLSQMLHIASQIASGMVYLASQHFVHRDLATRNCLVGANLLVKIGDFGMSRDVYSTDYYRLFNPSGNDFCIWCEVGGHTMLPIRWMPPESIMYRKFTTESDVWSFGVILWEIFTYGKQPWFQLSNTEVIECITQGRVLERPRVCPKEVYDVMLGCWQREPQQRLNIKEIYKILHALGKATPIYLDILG
T4 sequence (P04629 33-796 G667C): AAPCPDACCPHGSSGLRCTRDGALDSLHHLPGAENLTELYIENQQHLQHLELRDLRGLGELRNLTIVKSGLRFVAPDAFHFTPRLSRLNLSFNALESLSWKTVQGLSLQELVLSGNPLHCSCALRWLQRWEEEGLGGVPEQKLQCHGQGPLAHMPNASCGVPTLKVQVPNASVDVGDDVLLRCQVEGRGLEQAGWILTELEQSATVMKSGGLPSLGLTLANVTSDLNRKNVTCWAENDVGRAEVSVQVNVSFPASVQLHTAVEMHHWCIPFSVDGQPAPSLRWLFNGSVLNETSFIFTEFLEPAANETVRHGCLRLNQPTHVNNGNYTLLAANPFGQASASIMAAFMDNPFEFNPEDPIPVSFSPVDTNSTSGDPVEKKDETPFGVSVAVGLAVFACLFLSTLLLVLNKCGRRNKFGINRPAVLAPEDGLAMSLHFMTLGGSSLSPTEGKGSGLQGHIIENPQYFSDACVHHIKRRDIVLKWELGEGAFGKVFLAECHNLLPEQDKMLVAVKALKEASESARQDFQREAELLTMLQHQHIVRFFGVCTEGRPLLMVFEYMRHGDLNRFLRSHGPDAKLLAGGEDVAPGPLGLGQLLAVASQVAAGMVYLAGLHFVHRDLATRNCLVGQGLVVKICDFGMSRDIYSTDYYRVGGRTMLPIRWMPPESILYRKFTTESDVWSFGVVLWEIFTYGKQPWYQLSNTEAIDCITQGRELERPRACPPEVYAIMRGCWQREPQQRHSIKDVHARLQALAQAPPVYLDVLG
T1 sequence (P04629 33-796 G595R): as the sequence (P04629 33-796 G667C) above, with G563R, C635G counted along it

`O=C1NC2(CC2)COc2ncc(F)cc2C2COCCN2c2ccn3ncc1c3n2` (single isomer, unassigned) [WX001B] gave an IC50 (TrkA-G595R) of 3.5 nM, an IC50 (Ros1) of 1 nM and an IC50 (TrkC) of 0.2 nM. It also gave an IC50 (TrkA-G667C) of 2.3 nM.
